Measurements from PubChem BioAssay (NCI).
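Exposure lasted 48 hours, with cells grown in 96-well plates and compounds tested at five concentrations. TGI marks complete inhibition of growth.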

Key:
Assay in all cases: inhibition of tumour cell growth, NCI panel, 48 h
[1] = system: SN12C renal
[2] = system: BT-549 breast
[3] = system: A498 renal
[4] = system: OVCAR-5 ovarian
[5] = system: SW-620 colon
[6] = system: SR leukemia
[7] = system: EKVX NSCLC
[8] = system: M14 melanoma
[9] = system: HL-60(TB) leukemia
[10] = system: MCF7 breast
[11] = system: HCT-116 colon
[12] = system: LOX IMVI melanoma
[13] = system: UACC-257 melanoma
[14] = system: HOP-92 NSCLC
[15] = system: HCT-15 colon
[16] = system: SK-MEL-2 melanoma
[17] = system: MALME-3M melanoma
[18] = system: NCI-H522 lung
[19] = system: 786-0 renal
[20] = system: U251 CNS
[21] = system: SF-268 CNS
[22] = system: OVCAR-4 ovarian
[23] = system: NCI-H23 lung
[24] = system: RPMI-8226 leukemia
[25] = system: CAKI-1 renal
[26] = system: SK-OV-3 ovarian
[27] = system: HCC-2998 colon
[28] = system: DU-145 prostate
[29] = system: OVCAR-3 ovarian
[30] = system: TK-10 renal
[31] = system: SNB-75 CNS
[32] = system: HOP-62 NSCLC
[33] = system: MDA-N
[34] = system: NCI-H460 lung
[35] = system: SK-MEL-5 melanoma
[36] = system: SNB-19 CNS
[37] = system: UO-31 renal
[38] = system: K-562 leukemia
[39] = system: MOLT-4 leukemia
[40] = system: IGROV1 ovarian
[41] = system: T-47D breast
[42] = system: SF-295 CNS
[43] = system: OVCAR-8 ovarian
[44] = system: ACHN renal
[45] = system: PC-3 prostate
[46] = system: HS 578T breast
[47] = system: KM12 colon
[48] = system: UACC-62 melanoma
[49] = system: NCI/ADR-RES ovarian
[50] = system: SF-539 CNS
[51] = system: RXF 393 renal
[52] = system: SK-MEL-28 melanoma
[53] = system: A549 NSCLC
[54] = system: CCRF-CEM leukemia
[55] = system: MDA-MB-435
[56] = system: HT29 colon
[57] = system: COLO 205 colon
[58] = system: NCI-H226 lung
[59] = system: MDA-MB-231 breast

## CC(C)(C)c1ccc(-c2nc3ccccc3c(=O)o2)cc1
[1]
  TGI: > 100 µM
[2]
  TGI: 91 µM
[3]
  TGI: > 100 µM
[4]
  TGI: > 100 µM
[5]
  TGI: > 100 µM
[6]
  TGI: 54.2 µM
[7]
  TGI: > 100 µM
[8]
  TGI: > 100 µM
[9]
  TGI: 48.8 µM
[10]
  TGI: 62.2 µM
[11]
  TGI: > 100 µM
[12]
  TGI: 37.4 µM
[13]
  TGI: > 100 µM
[14]
  TGI: > 100 µM
[15]
  TGI: > 100 µM
[16]
  TGI: 66.6 µM
[17]
  TGI: > 100 µM
[18]
  TGI: 69.6 µM
[19]
  TGI: > 100 µM
[20]
  TGI: > 100 µM
[21]
  TGI: > 100 µM
[22]
  TGI: > 100 µM
[23]
  TGI: > 100 µM
[24]
  TGI: 93.3 µM
[25]
  TGI: > 100 µM
[26]
  TGI: > 100 µM
[27]
  TGI: 85.5 µM
[28]
  TGI: > 100 µM
[29]
  TGI: 62.1 µM
[30]
  TGI: > 100 µM
[31]
  TGI: 95.2 µM
[32]
  TGI: > 100 µM
[33]
  TGI: > 100 µM
[34]
  TGI: > 100 µM
[35]
  TGI: 38.2 µM
[36]
  TGI: > 100 µM
[37]
  TGI: > 100 µM
[38]
  TGI: > 100 µM
[39]
  TGI: 47.8 µM
[40]
  TGI: > 100 µM
[41]
  TGI: > 100 µM
[42]
  TGI: > 100 µM
[43]
  TGI: > 100 µM
[44]
  TGI: > 100 µM
[45]
  TGI: > 100 µM
[46]
  TGI: > 100 µM
[47]
  TGI: > 100 µM
[48]
  TGI: > 100 µM
[49]
  TGI: > 100 µM
[50]
  TGI: > 100 µM
[51]
  TGI: > 100 µM
[52]
  TGI: > 100 µM
[53]
  TGI: 86.6 µM
[54]
  TGI: 44.2 µM
[55]
  TGI: > 100 µM
[56]
  TGI: > 100 µM
[57]
  TGI: 78.7 µM

## C/C(O)=C(/C=N\C(=S)Nc1ccc(Cl)c(Cl)c1)C(=O)Nc1ccccc1C
[1]
  TGI: > 100 µM
[2]
  TGI: > 100 µM
[3]
  TGI: 79.6 µM
[4]
  TGI: > 100 µM
[5]
  TGI: > 100 µM
[7]
  TGI: > 100 µM
[8]
  TGI: > 100 µM
[9]
  TGI: 60.1 µM
[10]
  TGI: > 100 µM
[11]
  TGI: > 100 µM
[12]
  TGI: > 100 µM
[13]
  TGI: > 100 µM
[14]
  TGI: 58.1 µM
[15]
  TGI: > 100 µM
[16]
  TGI: > 100 µM
[19]
  TGI: > 100 µM
[20]
  TGI: > 100 µM
[21]
  TGI: > 100 µM
[22]
  TGI: 76.5 µM
[23]
  TGI: 76.8 µM
[25]
  TGI: 95.7 µM
[26]
  TGI: > 100 µM
[27]
  TGI: > 100 µM
[28]
  TGI: 92 µM
[29]
  TGI: > 100 µM
[30]
  TGI: > 100 µM
[31]
  TGI: 66.3 µM
[58]
  TGI: 88.7 µM
[32]
  TGI: > 100 µM
[33]
  TGI: > 100 µM
[34]
  TGI: > 100 µM
[35]
  TGI: 44 µM
[36]
  TGI: 84.2 µM
[37]
  TGI: > 100 µM
[39]
  TGI: 54.9 µM
[40]
  TGI: > 100 µM
[41]
  TGI: 45.7 µM
[42]
  TGI: > 100 µM
[43]
  TGI: 66.3 µM
[44]
  TGI: > 100 µM
[47]
  TGI: > 100 µM
[48]
  TGI: 49.8 µM
[49]
  TGI: 61.1 µM
[50]
  TGI: > 100 µM
[51]
  TGI: > 100 µM
[59]
  TGI: > 100 µM
[52]
  TGI: > 100 µM
[53]
  TGI: > 100 µM
[55]
  TGI: > 100 µM
[56]
  TGI: 87.1 µM
[57]
  TGI: > 100 µM
